Laboratory results reported in patent US7300946B2, “N-(substituted arylmethyl)-4-(disubstituted methyl) piperidines and pyridines” (Bayer CropScience AG, priority 2002, dated 2007).

Test system: tobacco budworm (Heliothis virescens [Fabricius])
Assay: surface-treated diet test against the tobacco budworm
Type: in vivo
Details: tobacco budworm second instar larvae, 0.25 millimoles of candidate insecticide on the surface of the diet, five-day exposure; for Percent Mortality: compared to total number of insects infested; for Percent Growth Inhibition: inhibition of insect weight relative to untreated controls
Method in brief: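 Wheat germ artificial diet surface-treated with 40 µL of 50 mM DMSO stock diluted 1:7 in 1:1 water/acetone (0.25 millimolar on diet), or sub-multiples for rate tests. One second-instar larva per well, 25° C, 60% RH, 5 days; percent weight inhibition vs DMSO controls and percent mortality.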

Row | Structure (SMILES) | Percent Mortality (surface-treated diet) | Percent Growth Inhibition (surface-treated diet) | Percent Mortality | Percent Growth Inhibition
1 | CCn1nnc(-c2ccc(CN3CCC(C(OC(=O)Nc4ccc(Cl)cc4)c4ccccc4Cl)CC3)cc2)n1 (stereo not drawn) [Compound 567] | 100% | 100% |  | 
2 | CCn1nnc(-c2ccc(CN3CCC(C(OC(=O)Nc4cc(F)cc(F)c4)c4ccc(Cl)c(Cl)c4)CC3)cc2)n1 (stereo not drawn) [Compound 575] | 100% | 100% |  | 
3 | O=C(Nc1cccc(Cl)c1Cl)OC(c1ccc(C(F)(F)F)cc1)C1CCN(Cc2ccc(Oc3ccccn3)cc2)CC1 (stereo not drawn) [Compound 228] | 100% | 100% |  | 
4 | O=C(Nc1ccc(F)cc1)OC(c1ccc(C(F)(F)F)cc1)C1CCN(Cc2ccc(-n3cncn3)cc2)CC1 (stereo not drawn) [Compound 557] | 0% | 86% |  | 
5 | Cn1nnc(-c2ccc(CN3CCC(C(NC(=O)c4ccc(OC(F)(F)F)cc4)c4ccc(OC(F)(F)F)cc4)CC3)cc2)n1 (stereo not drawn) [Compound 332] | 100% | 100% |  | 
6 | CCn1nnc(-c2ccc(CN3CCC(C(OC(=O)Nc4ccc(Oc5ccccc5)cc4)c4ccc(Oc5ccccc5)cc4)CC3)cc2)n1 (stereo not drawn) [Compound 622] | 0% | 4% |  | 
7 | O=C(Nc1ccc(F)cc1)OC(c1ccc(Cl)c(Cl)c1)C1CCN(Cc2ccc(Oc3ccccn3)cc2)CC1 (stereo not drawn) [Compound 646] | 100% | 100% |  | 
8 | CCn1nnc(-c2ccc(CN3CCC(C(OC(=O)Nc4cc(F)cc(F)c4)c4ccc(Oc5ccccc5)cc4)CC3)cc2)n1 (stereo not drawn) [Compound 619] | 17% | 100% |  | 
9 | Cn1nnc(-c2ccc(CN3CCC(C(NCc4ccccc4Cl)c4ccc(OC(F)(F)F)cc4)CC3)cc2)n1 (stereo not drawn) [Compound 309] | 100% | 100% |  | 
10 | COC(=O)Nc1ccc(CN2CCC(=C(c3ccc(C(F)(F)F)cc3)c3ccc(C(F)(F)F)cc3)CC2)cc1 [Compound 54] | 100% | 100% |  | 
11 | O=C(Nc1ccc(F)c(F)c1)OC(c1ccc(C(F)(F)F)cc1)C1CCN(Cc2ccc(Oc3ccccn3)cc2)CC1 (stereo not drawn) [Compound 237] | 100% | 100% |  | 
12 | N#Cc1cccnc1Oc1ccc(CN2CCC(C(OC(=O)Nc3ccc(Cl)cc3)c3ccc(OC(F)(F)F)cc3)CC2)cc1 (stereo not drawn) [Compound 707] |  |  | 100% | 100%
13 | CCON=Cc1ccc(CN2CCC(C(OC(=O)N(C)c3ccccc3)c3ccc(C(F)(F)F)cc3)CC2)cc1 (stereo not drawn) [Compound 536] | 100% | 100% |  | 
14 | [O-][N+]1(Cc2ccc(Oc3ccc(Cl)cn3)cc2)CCC(=C(c2ccc(C(F)(F)F)cc2)c2ccc(C(F)(F)F)cc2)CC1 (stereo not drawn) [Compound 107] | 100% | 100% |  | 
15 | CC(NC(=O)OC(c1ccc(C(F)(F)F)cc1)C1CCN(Cc2ccc(Oc3ccccn3)cc2)CC1)c1ccccc1 (stereo not drawn) [Compound 660] | 0% | 98% |  | 
16 | CCON=Cc1ccc(CN2CCC(C(OC(=O)Nc3cccc(F)c3)c3ccc(F)cc3)CC2)cc1 (stereo not drawn) [Compound 527] | 100% | 100% |  | 
17 | CCCOc1ccc(CN2CCC(C(OC(=O)Nc3cc(F)cc(F)c3)c3ccc(Cl)cc3)CC2)cc1 (stereo not drawn) [Compound 474] | 100% | 100% |  | 
18 | Cn1nnc(-c2ccc(C[N+]3([O-])CCC(=C(c4ccc(C(F)(F)F)cc4)c4ccc(C(F)(F)F)cc4)CC3)cc2)n1 (stereo not drawn) [Compound 112] | 100% | 100% |  | 
19 | COC(=O)N(c1ccc(C[N+]2([O-])CCC(C(OC(=O)Nc3cc(F)cc(F)c3)c3ccc(C(F)(F)F)cc3)CC2)cc1)c1ccccn1 (stereo not drawn) [Compound 761] |  |  | 100% | 100%
20 | CC(C)OC(=O)Nc1ccc(CN2CCC(C(OC(=O)Nc3ccc(Cl)cc3)c3ccc(OC(F)(F)F)cc3)CC2)cc1 (stereo not drawn) [Compound 513] | 100% | 100% |  | 
21 | O=C(Nc1cc(F)cc(F)c1)OC(c1ccc(C(F)(F)F)cc1)C1CCN(Cc2ccc(-c3ccccn3)cc2)CC1 (stereo not drawn) [Compound 628] | 100% | 100% |  | 
22 | CC(C)NC(=O)Oc1ccc(CN2CCC(=C(c3ccc(C(F)(F)F)cc3)c3ccc(C(F)(F)F)cc3)CC2)cc1 [Compound 792] |  |  | 100% | 100%
23 | FC(F)(F)c1ccc(C(Oc2cncc(Cl)c2)C2CCN(Cc3ccc(Oc4ccccn4)cc3)CC2)cc1 (stereo not drawn) [Compound 443] | 33% | 100% |  | 
24 | CC(C)OC(=O)Nc1ccc(CN2CCC(C(OC(=O)Nc3ccc(Cl)cc3)c3cc(Cl)cc(Cl)c3)CC2)cc1 (stereo not drawn) [Compound 508] | 100% | 100% |  | 

Row | Structure (SMILES) | Percent Mortality (surface-treated diet) | Percent Growth Inhibition (surface-treated diet) | Percent Mortality | Percent Growth Inhibition
25 | O=C(Nc1cc(F)cc(F)c1)OC(c1ccc(C(F)(F)F)cc1)C1CCN(Cc2ccc(NC(=O)c3c(F)cccc3F)cc2)CC1 (stereo not drawn) [Compound 552] | 100% | 100% |  | 
26 | Cc1cccc(CNC(=O)OC(c2ccc(C(F)(F)F)cc2)C2CCN(Cc3ccc(Oc4ccccn4)cc3)CC2)c1 (stereo not drawn) [Compound 694] | 50% | 100% |  | 
27 | O=C(Nc1cc(F)cc(F)c1)OC(c1ccc(C(F)(F)F)cc1)C1CC[N+]([O-])(Cc2ccc(Oc3ccccn3)cc2)CC1 (stereo not drawn) [Compound 397] | 100% | 100% |  | 
28 | O=C(Nc1cc(F)ccc1F)OC(c1ccc(C(F)(F)F)cc1)C1CCN(Cc2ccc(Oc3ccccn3)cc2)CC1 (stereo not drawn) [Compound 239] | 100% | 100% |  | 
29 | CCON=Cc1ccc(CN2CCC(C(OC(=O)Nc3ccc(Cl)cc3)c3ccc(Cl)cc3Cl)CC2)cc1 (stereo not drawn) [Compound 529] | 100% | 100% |  | 
30 | CCON=Cc1ccc(CN2CCC(C(OC(=O)Nc3cc(F)cc(F)c3)c3ccc(OC(F)(F)F)cc3)CC2)cc1 (stereo not drawn) [Compound 538] | 100% | 100% |  | 
31 | Cn1nnc(-c2ccc(CN3CCC(C(NC(=O)Oc4ccc(OC(F)(F)F)cc4)c4ccc(OC(F)(F)F)cc4)CC3)cc2)n1 (stereo not drawn) [Compound 357] | 100% | 100% |  | 
32 | O=C(Nc1ccc(Cl)cc1)OC(c1ccc(C(F)(F)F)cc1)C1CCN(Cc2ccc(Oc3ccccn3)cc2)CC1 (stereo not drawn) [Compound 666] | 100% | 100% |  | 
33 | CCn1nnc(-c2ccc(CN3CCC(C(OC(=O)Nc4cccc(C(F)(F)F)c4)c4ccc(C)cc4)CC3)cc2)n1 (stereo not drawn) [Compound 599] | 100% | 100% |  | 
34 | CCON=Cc1ccc(CN2CCC(C(OC(=O)Nc3cc(Cl)c(OC)cc3OC)c3ccc(C(F)(F)F)cc3)CC2)cc1 (stereo not drawn) [Compound 210] | 0% | 67% |  | 
35 | O=C(Nc1c(F)cccc1F)OC(c1ccc(C(F)(F)F)cc1)C1CCN(Cc2ccc(Oc3ccccn3)cc2)CC1 (stereo not drawn) [Compound 241] | 100% | 100% |  | 
36 | O=C(Nc1ccc(Cl)cc1)OC(c1ccc(OC(F)(F)F)cc1)C1CCN(Cc2ccc(Oc3cccc[n+]3[O-])cc2)CC1 (stereo not drawn) [Compound 706] |  |  | 100% | 100%
37 | O=C(Nc1ccc(Cl)cc1)OC(c1ccc(C(F)(F)F)cc1)C1CCN(Cc2ccc(Oc3ccccn3)cc2)CC1 (stereo not drawn) [Compound 665] | 0% | 100% |  | 
38 | O=C(Nc1ccc(Br)cc1)OC(c1ccc(C(F)(F)F)cc1)C1CCN(Cc2ccc(Oc3ccccn3)cc2)CC1 (stereo not drawn) [Compound 673] | 100% | 100% |  | 
39 | O=C(Nc1cc(F)cc(F)c1)OC(c1ccc(Cl)c(Cl)c1)C1CCN(Cc2ccc(Oc3ncccn3)cc2)CC1 (stereo not drawn) [Compound 723] |  |  | 100% | 100%
40 | CCn1nnc(-c2ccc(CN3CCC(C(OC(=O)Nc4cc(F)cc(F)c4)c4ccc(OC)cc4)CC3)cc2)n1 (stereo not drawn) [Compound 604] | 100% | 100% |  | 
41 | CCON=Cc1ccc(CN2CCC(C(OC(=O)Nc3ccc(Cl)cc3)c3ccc(OC(F)(F)F)cc3)CC2)cc1 (stereo not drawn) [Compound 537] | 100% | 100% |  | 
42 | CCn1nnc(-c2ccc(CN3CCC(C(OC(=O)Nc4ccc(C(F)(F)F)cc4)c4cc(Cl)cc(Cl)c4)CC3)cc2)n1 (stereo not drawn) [Compound 581] | 100% | 100% |  | 
43 | CCCOc1ccc(CN2CCC(C(OC(=O)Nc3ccc(Cl)cc3)c3cccc(C(F)(F)F)c3)CC2)cc1 (stereo not drawn) [Compound 485] | 100% | 100% |  | 
44 | O=C(Nc1cc(F)cc(F)c1)OC(c1ccc(C(F)(F)F)cc1)C1CCN(Cc2ccc(Oc3cccc(Cl)n3)cc2)CC1 (stereo not drawn) [Compound 685] | 100% | 100% |  | 
45 | CC(C)OC(=O)Nc1ccc(CN2CCC(C(OC(=O)Nc3cccc(F)c3)c3ccc(Cl)cc3)CC2)cc1 (stereo not drawn) [Compound 501] | 100% | 100% |  | 
46 | CC(C)OC(=O)Nc1ccc(CN2CCC(C(OC(=O)Nc3cc(F)cc(F)c3)c3ccc(OC(F)(F)F)cc3)CC2)cc1 (stereo not drawn) [Compound 515] | 100% | 100% |  | 
47 | O=C(Nc1cc(F)cc(F)c1)OC(c1ccc(C(F)(F)F)cc1)C1CCN(Cc2ccc(Oc3ccccn3)cc2)CC1 (stereo not drawn) [Compound 680] | 17% | 100% |  | 
48 | CCCOc1ccc(CN2CCC(C(OC(=O)Nc3ccc(C(F)(F)F)cc3)c3cccc(C(F)(F)F)c3)CC2)cc1 (stereo not drawn) [Compound 489] | 100% | 100% |  | 
